Results as given in patent US12285431B2, “Treatment of Rb-negative tumors using topoisomerase inhibitors in combination with cyclin dependent kinase 4/6 inhibitors” (G1 Therapeutics, Inc., priority 2014, dated 2025).

Tests used:
CDK4/CyclinD1 = CDK4/CyclinD1 (Homo sapiens, UniProt P11802); experiment: CDK4/cyclinD1 kinase assay (Nanosyn, Caliper microfluidic kinase detection); type: biochemical; conditions: Table 2; 12-point dose-response, ATP at Km (200 μM), 10 hr; read-out: CDK4/CycD1 IC50
Procedure: The assays were performed using microfluidic kinase detection technology (Caliper Assay Platform). The compounds were tested in 12-point dose-response format in singlicate at Km for ATP. Phosphoacceptor substrate peptide concentration used was 1 μM for all assays and Staurosporine was used as the reference compound for all assays. Specifics of each assay are as described below:
CDK4/CyclinD1: Enzyme concentration: 1 nM; ATP concentration: 200 μM; Incubation time: 10 hr.

HS68 cells = experiment: G1 arrest (cellular G1 and S-phase) assay, propidium iodide flow cytometry; type: cell-based, human; conditions: Homo sapiens, Hs68, HS68 cells
Procedure: HS68 cells (human skin fibroblast cell line (Rb-positive)) were stained with propidium iodide staining solution and run on Dako Cyan Flow Cytometer. The fraction of cells in G0-G1 DNA cell cycle versus the fraction in S-phase DNA cell cycle was determined using FlowJo 7.2.2 analysis.
The compounds listed in Table 1 were tested for their ability to arrest HS68 cells at the G1 phase of the cell cycle.

Sequence of CDK4/CyclinD1 (P11802 whole entry, species assumed): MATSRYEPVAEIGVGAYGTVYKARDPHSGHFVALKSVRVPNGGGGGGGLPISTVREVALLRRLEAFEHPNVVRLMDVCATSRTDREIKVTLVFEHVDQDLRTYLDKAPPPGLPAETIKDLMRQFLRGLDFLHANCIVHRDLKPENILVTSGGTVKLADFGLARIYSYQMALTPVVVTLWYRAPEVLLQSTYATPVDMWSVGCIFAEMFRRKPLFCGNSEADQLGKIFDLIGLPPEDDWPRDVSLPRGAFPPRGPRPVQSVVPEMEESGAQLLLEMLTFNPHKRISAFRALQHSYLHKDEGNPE
Sequence of CDK4/CyclinD1 (P24385 whole entry partner, species assumed): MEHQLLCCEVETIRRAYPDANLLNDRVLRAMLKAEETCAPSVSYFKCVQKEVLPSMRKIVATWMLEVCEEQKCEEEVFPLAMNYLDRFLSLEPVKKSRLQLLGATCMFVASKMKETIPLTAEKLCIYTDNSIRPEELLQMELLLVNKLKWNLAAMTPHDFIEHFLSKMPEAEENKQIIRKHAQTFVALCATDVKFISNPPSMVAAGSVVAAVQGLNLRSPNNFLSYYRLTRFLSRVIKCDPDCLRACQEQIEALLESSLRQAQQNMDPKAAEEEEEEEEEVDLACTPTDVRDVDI

Compound | IC50 (CDK4/CyclinD1) [µM] | EC50 (HS68 cells) [µM]
C[C@@H]1CN(c2ccc(Nc3ncc4cc5n(c4n3)C3(CCCCC3)CNC5=O)nc2)C[C@H](C)N1C [DD] | 0.0019 | 0.1
O=C1NCC2(CCCCC2)n2c1cc1cnc(Nc3ccc(N4CCN(CC5CC5)CC4)cn3)nc12 [HH] | 0.0017 | 0.11
CCN(CC)C1CCN(c2ccc(Nc3ncc4cc5n(c4n3)C3(CCCC3)CNC5=O)nc2)CC1 [LLL] | 0.0032 | 0.25
C[C@@H]1CN(c2ccc(Nc3ncc4cc5n(c4n3)C3(CCCCC3)CNC5=O)nc2)CCN1C [NN] | 0.0037 | 0.11
CCC(C)CN1CCN(c2ccc(Nc3ncc4cc5n(c4n3)C3(CCCC3)CNC5=O)nc2)CC1 (stereo not drawn) [FFF] | 0.0047 | 
CC1CN(c2ccc(Nc3ncc4cc5n(c4n3)C3(CCCCC3)CNC5=O)nc2)CCN1CCC(C)(C)C (stereo not drawn) [G] | 0.0015 | 0.175
CN1CCN(c2ccc(Nc3ncc4cc5n(c4n3)C3(CCCC3)CNC5=O)nc2)CC1 [ZZ] | 0.0105 | 0.5
CC(C)N1CCN(c2ccc(Nc3ncc4cc5n(c4n3)C3(CCCC3)CNC5=O)nc2)CC1C (stereo not drawn) [GGG] | 0.0137 | 0.35
O=C1NCC2(CCCC2)n2c1cc1cnc(Nc3ccc(N4CCC(N5CCCCC5)CC4)cn3)nc12 [HHH] | 0.0068 | 0.25
O=C1NCC2(CCCCC2)n2c1cc1cnc(Nc3ccc(C(=O)N4CCNCC4)cn3)nc12 [Y] | 0.0025 | 0.35
C[C@H](O)CN1CCN(c2ccc(Nc3ncc4cc5n(c4n3)C3(CCCC3)CNC5=O)nc2)C[C@H]1C [XX] | 0.0013 | 0.225
C[C@@H](O)CN1CCN(c2ccc(Nc3ncc4cc5n(c4n3)C3(CCCC3)CNC5=O)nc2)C[C@@H]1C [VV] | 0.0033 | 0.2
C[C@H]1CN(c2ccc(Nc3ncc4cc5n(c4n3)C3(CCCCC3)CNC5=O)nc2)CCN1CCC(C)(C)C [M] |  | 0.1
CCC(C)[C@@H]1CNC(=O)c2cc3cnc(Nc4ccc(N5CCNCC5)cn4)nc3n21 (stereo partly drawn) [VVV] |  | 0.3
CC(C)(C)CCN1CCN(c2ccc(Nc3ncc4cc5n(c4n3)C3(CCCC3)CNC5=O)nc2)CC1(C)C [CCC] | 0.002 | 0.25
CCC(C)CN1[C@H](C)CN(c2ccc(Nc3ncc4cc5n(c4n3)C3(CCCC3)CNC5=O)nc2)C[C@@H]1C (stereo partly drawn) [JJJ] | 0.0032 | 0.24
CC(C)(C)CCN1CCN(c2ccc(Nc3ncc4cc5n(c4n3)C3(CCCC3)CNC5=O)nc2)CC1 [KKK] | 0.0013 | 0.19
CC(C)N1CCN(c2ccc(Nc3ncc4cc5n(c4n3)C3(CCCC3)CNC5=O)nn2)CC1 [RRR] | 0.0026 | 0.4
C[C@@H]1CN(c2ccc(Nc3ncc4cc5n(c4n3)C3(CCCC3)CNC5=O)nc2)C[C@H](C)N1 [DDD] | 0.0095 | 0.35
CC(C)N1CCN(c2ccc(Nc3ncc4cc5n(c4n3)C3(CCCC3)CNC5=O)nc2)CC1 [III] | 0.006 | 0.25
CC(C)[C@H]1CNC(=O)c2cc3cnc(Nc4ccc(N5CCNCC5)cn4)nc3n21 [UUU] |  | 0.3
CC(C)C[C@@H]1CNC(=O)c2cc3cnc(Nc4ccc(N5CCNCC5)cn4)nc3n21 [WWW] | 0.0185 | 0.3
O=C1NCC2(CCCC2)n2c1cc1cnc(Nc3ccc(N4CCNCC4)cn3)nc12 [QQQ] | 0.0105 | 0.5
O=C1NCC2(CCCC2)n2c1cc1cnc(Nc3ccc(N4CCOCC4)nn3)nc12 [SSS] | 0.002 | 1.5
CC(C)N1CCN(c2ccc(Nc3ncc4cc5n(c4n3)C3(CCCCC3)CNC5=O)nn2)CC1 [TT] | 0.0008 | 0.075
CN(C)C1CCN(c2ccc(Nc3ncc4cc5n(c4n3)C3(CCCC3)CNC5=O)nn2)CC1 [TTT] | 0.0034 | 0.35
CC1CN(c2ccc(Nc3ncc4cc5n(c4n3)C3(CCCC3)CNC5=O)nc2)CCN1CCC(C)(C)C (stereo not drawn) [PPP] |  | 0.275
CC(C)C[C@@H]1CNC(=O)c2cc3cnc(Nc4ccc(N5CCN(C)CC5)cn4)nc3n21 [XXX] | 0.0114 | 0.3
